Laboratory results taken from paper PMC6152667, “Synthesis and Evaluation of Antimicrobial Activity of [R4W4K]-Levofloxacin and [R4W4K]-Levofloxacin-Q Conjugates” (Molecules : A Journal of Synthetic Chemistry and Natural …, 2017).
In brackets after ≈: the same amount, converted by molar mass. Where two headings read alike, the source gives them in different places. Side chains are listed from the residue outwards. Peptide text beside a SMILES is read from it. * marks the point of attachment. Levofloxacinoyl = C[C@H]1COc2c(N3CCN(C)CC3)c(F)cc3c(=O)c(C(=O)*)cn1c23; X1 = C[C@H]1COc2c(F)c(F)cc3c(=O)c(C(=O)*)cn1c23; βAla = NCCC(=O)O

Columns and labels:
[1] = test system: Klebsiella pneumoniae (Clinical strain (levofloxacin-susceptible)); assay: microbe, parasite or virus in culture; format: cell-based; details: for MIC: Klebsiella pneumoniae
Method: (§1) The antibacterial activities of synthesized peptides were evaluated against two bacterial strains and compared to a control antibiotic and [R4W4]. Gram-negative bacteria: Klebsiella pneumoniae (Clinical strain (levofloxacin-susceptible)) and the Gram-positive bacteria: Methicillin-Resistant Staphylococcus aureus (Los Angeles County (LAC) clone) were employed for the determination of antimicrobial activities of peptides. MRSA and Klebsiella pneumoniae were inoculated into 5 mL of Mueller Hinton […] (MH) at 37 °C and shaken in an orbital shaker at 175 rpm overnight. The cultured suspension was diluted in 5 mL normal saline until it achieved 0.5 McFarland (1.5 × 10^8 bacterial cell density) turbidity. An amount of 40 μL of the McFarland solution was added to […] of MH media to make 1/150 dilution. Most peptides were dissolved in distilled water (except some of them that were dissolved in 50 mM NH4HCO3 to improve the solubility) to make 256 μg/mL solutions. Minimal inhibitory concentrations (MICs) were determined using the broth microdilution method. Briefly, 200 μL of all tested peptides and controls was added in the first column of the 96-well plate. Then, by adding 100 μL of media to the other wells and performing a 2-fold dilution in each well, serial dilution of the compound was prepared. After a series of 2-fold dilutions, 100 μL of bacterial solution was added to all wells, and then the microliter plates were incubated statically at 37 °C overnight. MICs were determined as the minimal concentration at which no visible bacterial growth was present. All experiments were conducted in triplicate.

[2] = test system: Methicillin-Resistant Staphylococcus aureus (Los Angeles County (LAC) clone); assay: microbe, parasite or virus in culture; format: cell-based; details: for MIC: Staphylococcus aureus, MRSA, read-out: MIC, Methicillin-Resistant Staphylococcus aureus (MRSA)
Method: as §1

[3] = test system: Methicillin-resistant Staphylococcus aureus (MRSA); set-up: method as in PMID 25157458; details: previously reported; cited from earlier work
From the text: The development of a new class of antibiotics to fight bacterial resistance is a time-consuming effort associated with high-cost and commercial risks. Thus, modification, conjugation or combination of existing antibiotics to enhance their efficacy is a suitable strategy. […] Herein, we hypothesized that conjugation or combination of the amphiphilic cyclic peptide [R4W4] with levoflox ... || Antimicrobial peptides (AMPs) are vital parts of the innate immune system, which usually act at the level of the plasma membrane of the bacterial cell. AMPs have a unique mode of action, which is mostly related to their cationic and amphipathic properties, making them capable of interacting with microbial membranes. Accordingly, AMPs have attracted increasing attention as potential candidates against resistant bacteria. […] T ...

Escherichia coli = test system: Escherichia coli; set-up: method as in PMID 25157458; details: previously reported; cited from earlier work
[4] = broth microdilution, Mueller Hinton media, 2-fold dilutions, 37 °C overnight, no visible growth, triplicate, N/A = not active
[5] = broth microdilution, Mueller Hinton media, 2-fold dilutions, 37 °C overnight, no visible growth, triplicate, N/A = not active, listed as levofloxacin-Q
[6] = Clinical strain (levofloxacin-susceptible)

SMILES: C[C@@H](O)[C@H]1C(=O)N2C(C(=O)O)=C(S[C@@H]3CN[C@H](C(=O)N(C)C)C3)[C@H](C)[C@H]12 [Meropenem]
- MIC [1, 4]: 1 µg/mL (≈ 2.61 µM)

SMILES: C[C@H]1COc2c(F)c(F)cc3c(=O)c(C(=O)NCCC(=O)NCCCC[C@@H]4NC(=O)[C@H](Cc5c[nH]c6ccccc56)NC(=O)[C@H](Cc5c[nH]c6ccccc56)NC(=O)[C@H](Cc5c[nH]c6ccccc56)NC(=O)[C@H](Cc5c[nH]c6ccccc56)NC(=O)[C@H](CCCNC(=N)N)NC(=O)[C@H](CCCNC(=N)N)NC(=O)[C@H](CCCNC(=N)N)NC(=O)[C@H](CCCNC(=N)N)NC4=O)cn1c23 (cyclo(K([βAla-X1])RRRRWWWW))
- MIC, Methicillin-Resistant Staphylococcus aureus (MRSA) [2, 4]: 8 µg/mL (≈ 4.37 µM)
- MIC, Klebsiella pneumoniae [1, 4]: 32 µg/mL (≈ 17.5 µM)

SMILES: C[C@H]1COc2c(N3CCN(C)CC3)c(F)cc3c(=O)c(C(=O)O)cn1c23 [Levofloxacin (1), Levofloxacin]
- MIC [2, 4]: 2 µg/mL (≈ 5.53 µM)
- MIC, Methicillin-Resistant Staphylococcus aureus (MRSA) [2, 4]: 2 µg/mL (≈ 5.53 µM)
- MIC [1, 4]: 4 µg/mL (≈ 11.1 µM)
- MIC, Klebsiella pneumoniae [1, 4]: 4 µg/mL (≈ 11.1 µM)

SMILES: C[C@H]1COc2c(F)c(F)cc3c(=O)c(C(=O)O)cn1c23 [Levofloxacin-Q (2), Levofloxacin-Q acid]
- MIC, Methicillin-Resistant Staphylococcus aureus (MRSA) [2, 4]: >128 µg/mL
- MIC, Methicillin-Resistant Staphylococcus aureus (MRSA) [2, 5]: > 128 µg/mL
- MIC, Klebsiella pneumoniae [1, 4]: >128 µg/mL
- MIC, Klebsiella pneumoniae [1, 5]: > 128 µg/mL

SMILES: CN[C@H](CC(C)C)C(=O)N[C@H]1C(=O)N[C@@H](CC(N)=O)C(=O)N[C@H]2C(=O)N[C@H]3C(=O)N[C@H](C(=O)N[C@H](C(=O)O)c4cc(O)cc(O)c4-c4cc3ccc4O)[C@H](O)c3ccc(c(Cl)c3)Oc3cc2cc(c3O[C@@H]2O[C@H](CO)[C@@H](O)[C@H](O)[C@H]2O[C@H]2C[C@](C)(N)[C@H](O)[C@H](C)O2)Oc2ccc(cc2Cl)[C@H]1O [Vancomycin]
- MIC [2]: 1 µg/mL (≈ 0.69 µM)

SMILES: CN(C)[C@@H]1C(O)=C(C(N)=O)C(=O)[C@@]2(O)C(O)=C3C(=O)c4c(O)cccc4[C@@](C)(O)[C@H]3C[C@@H]12 [tetracycline]
- MIC against MRSA [3]: 0.5 µg/mL
- MIC against Escherichia coli (Escherichia coli): 2 µg/mL (≈ 4.5 µM)

SMILES: C[C@H]1COc2c(N3CCN(C)CC3)c(F)cc3c(=O)c(C(=O)NCCC(=O)NCCCC[C@@H]4NC(=O)[C@H](Cc5c[nH]c6ccccc56)NC(=O)[C@H](Cc5c[nH]c6ccccc56)NC(=O)[C@H](Cc5c[nH]c6ccccc56)NC(=O)[C@H](Cc5c[nH]c6ccccc56)NC(=O)[C@H](CCCNC(=N)N)NC(=O)[C@H](CCCNC(=N)N)NC(=O)[C@H](CCCNC(=N)N)NC(=O)[C@H](CCCNC(=N)N)NC4=O)cn1c23 [Conjugate cyclic [R4W4]-levofloxacin (8)] (cyclo(K([βAla-Levofloxacinoyl])RRRRWWWW))
- MIC, Methicillin-Resistant Staphylococcus aureus (MRSA) [2, 4]: 32 µg/mL (≈ 16.7 µM)

SMILES: C[C@H]1COc2c(N3CCN(C)CC3)c(F)cc3c(=O)c(C(=O)NCCC(=O)NCCCC[C@H](N)C(=O)N[C@@H](CCCNC(=N)N)C(=O)N[C@@H](CCCNC(=N)N)C(=O)N[C@@H](CCCNC(=N)N)C(=O)N[C@@H](CCCNC(=N)N)C(=O)N[C@@H](Cc4c[nH]c5ccccc45)C(=O)N[C@@H](Cc4c[nH]c5ccccc45)C(=O)N[C@@H](Cc4c[nH]c5ccccc45)C(=O)N[C@@H](Cc4c[nH]c5ccccc45)C(=O)O)cn1c23 [Conjugate linear (R4W4)-levofloxacin (6)] (H-K([βAla-Levofloxacinoyl])RRRRWWWW-OH)
- MIC, Methicillin-Resistant Staphylococcus aureus (MRSA) [2, 4]: 64 µg/mL (≈ 33.2 µM)
- MIC, Klebsiella pneumoniae [1, 6]: >128 µg/mL

SMILES: N=C(N)NCCC[C@@H]1NC(=O)[C@H](CCCNC(=N)N)NC(=O)[C@H](CCCNC(=N)N)NC(=O)[C@H](Cc2c[nH]c3ccccc23)NC(=O)[C@H](Cc2c[nH]c3ccccc23)NC(=O)[C@H](Cc2c[nH]c3ccccc23)NC(=O)[C@H](Cc2c[nH]c3ccccc23)NC(=O)[C@H](CCCNC(=N)N)NC1=O [[R4W4] (3)] (cyclo(RRRRWWWW))
- MIC against MRSA [3]: 2.97 µg/mL
- MIC, Methicillin-Resistant Staphylococcus aureus (MRSA) ([2]; Methicillin-Resistant (Los Angeles County (LAC) clone)): 4 µg/mL (≈ 2.92 µM)
- MIC, Klebsiella pneumoniae [1, 6]: 16 µg/mL (≈ 11.7 µM)
